The test system of one experiment is BMMs. The experiment can be described thus: Cytokine response of BMMs to microbial stimuli (ELISA, bioassay). The experiment is classed as cell-based, mouse. From the text: BMMs (Bone Marrow derived Macrophages) and GM-CSF induced BMDCs were generated as described (Fejer et al., 2008). The purity of BMMs was higher than 98%, of BMDCs approximately 80%. SP37A3 cells were originally grown in RPMI in the presence of GM-CSF and M-CSF as described (Bros et al., 2007). Cells growing in media with […] GM-CSF but without M-CSF were selected from the original cells and used further in the studies shown here.
(§1) Sarcin assay, measuring Ad endosomal escape was done as described previously (Schreiner et al., 2012). […] Non-endotoxin ligands were substantially LPS-free (less than or equal to 1 pg LPS/1011 viral particles) as determined by the Limulus amebocyte lysate test from Pyroquant. […]
Detection of secreted cytokines, surface antigens, intracellular proteins and enzymatic activity The following cytokines were detected with ELISA using commercially available antibody pairs or kits: mouse IL-6 (BD Bioscience), IL-1α (eBioscience), IL-1β (eBioscience) and IL-10 (eBioscience), human IL-6 (R&D Systems), IL-1α (eBioLegend) and IL-10 (BD Bioscience). IFN-αβ and TNF-α activities were measured with bioassays as described (Fejer et al., 2005). […] Intracellular proteins were detected on immunoblots with antibodies from Pharmingen BD (IL-1α and IL-1β) and Cell Signalling (phosphorylated isophorm of p38 MAPK). […]

A further experiment has as its system MPI cells. In words: Cytokine response of MPI cells to microbial stimuli (ELISA, bioassay). The experiment is classed as cell-based, mouse. The procedure: Single cell suspensions (0.5x10^6 cells/ml) from fetal livers of 15 to 19 day-old mouse embryos or of livers of new-born mice (up to 2 weeks of age) were washed in PBS and resuspended in RPMI 1640 containing 10% fetal calf serum and supplemented with 20 ng/ml recombinant murine GM-CSF (also referred to herein as MPI medium). Rapidly proliferating cells were subcultured by splitting them 1:5 in MPI medium using cells detached with PBS/1.5 mM EDTA and floating cells in the culture. Cells proliferated more slowly after 2 weeks of culture. GM-CSF was replenished weekly and subcultures in MPI medium were made when total (attached and floating) cell density reached approximately 0.5 x 10^6 cell/ml. […]
as §1
Detection of secreted cytokines, surface antigens, intracellular proteins and enzymatic activity The following cytokines were detected with ELISA using commercially available antibody pairs or kits: mouse IL-6 (BD Bioscience), IL-1α (eBioscience), IL-1β (eBioscience) and IL-10 (eBioscience), human IL-6 (R&D Systems), IL-1α (eBioLegend) and IL-10 (BD Bioscience). […]
In general terms: An ELISA detects its analyte on a solid surface through an enzyme-linked reagent.

Regarding FSL-1, the IFN-αβ production entry with BMMs and with MPI cells (MPI cells) was “neither of the cell types produced IFN-αβ” throughout. For the same substance, the “IL-6 and TNF-α levels” value with MPI cells (MPI cells in comparison to BMMs) was “higher levels”.
